Values after ≈ are worked out from the molar mass of the structure shown. One block for each compound: values may come before it.
Key:
Assay in all cases: ≥ marks a high value that may be exact or a test limit, other limits are often not marked, values filed in µg/mL are converted to µM
[1] = test system: Escherichia coli ATCC 25922
[2] = test system: Staphylococcus aureus ATCC 25923
[3] = test system: Pseudomonas aeruginosa ATCC 9027
[4] = test system: Acinetobacter baumannii
[5] = test system: Klebsiella pneumoniae ATCC 700603
[6] = test system: Bacillus cereus
[7] = test system: Escherichia coli
[8] = test system: Staphylococcus aureus
[9] = test system: Pseudomonas aeruginosa ATCC 27853
[10] = test system: Acinetobacter baumannii ATCC 19606
[11] = test system: Bacillus subtilis ATCC 23857
[12] = test system: Enterococcus faecalis ATCC 29212
[13] = test system: Staphylococcus epidermidis ATCC 12228
[14] = test system: Salmonella typhimurium
[15] = test system: Bacillus subtilis
[16] = test system: Klebsiella pneumoniae
[17] = test system: Klebsiella pneumoniae ATCC 13883
[18] = test system: Candida albicans ATCC 10231
[19] = test system: Pseudomonas aeruginosa
[20] = test system: Staphylococcus aureus ATCC 29213
[21] = test system: Candida albicans ATCC 2002
[22] = test system: Staphylococcus aureus ATCC 33591

Compound: CC[C@H](C)[C@H](NC(=O)[C@H](CC(C)C)NC(=O)[C@H](CCC(N)=O)NC(=O)[C@@H](NC(=O)[C@H](CC(C)C)NC(=O)[C@H](CCCN=C(N)N)NC(=O)[C@H](CCCN=C(N)N)NC(=O)[C@@H](NC(=O)[C@H](C)NC(=O)[C@H](CCCCN)NC(=O)[C@H](CCCN=C(N)N)NC(=O)[C@H](CC(C)C)NC(=O)[C@@H](NC(=O)[C@H](C)NC(=O)[C@@H](NC(=O)[C@H](C)N)[C@@H](C)O)[C@@H](C)CC)[C@@H](C)O)C(C)C)C(=O)O [ATAILRKATRRLVQLI]
MIC [1]: > 25 µM
MIC [2]: > 25 µM
MIC [3]: > 25 µM
MIC [4]: 25 µM (≈ 45.6 µg/mL)
MIC [5]: > 25 µM

Compound: CC(C)C[C@H](NC(=O)[C@H](CCCCN)NC(=O)[C@@H](NC(=O)[C@@H](NC(=O)[C@@H](NC(=O)CNC(=O)[C@H](CC(C)C)NC(=O)[C@@H](N)Cc1ccccc1)C(C)C)C(C)C)C(C)C)C(=O)N[C@@H](C)C(=O)N[C@@H](CO)C(=O)N[C@@H](CCCCN)C(=O)N[C@H](C(=O)N[C@@H](Cc1ccccc1)C(=O)N1CCC[C@H]1C(=O)N[C@@H](C)C(=O)N[C@H](C(=O)N[C@@H](Cc1ccccc1)C(=O)NCC(=O)N[C@@H](CCCCN)C(=O)N[C@H](C(=O)O)C(C)C)C(C)C)C(C)C [FLGVVVKLASKVFPAVFGKV]
MIC [6]: 15.2 µM (≈ 32 µg/mL)
MIC [7]: > 122 µM
MIC [8]: 7.6 µM (≈ 16 µg/mL)

Compound: CC(C)C[C@H](NC(=O)[C@H](CC(C)C)NC(=O)[C@H](CCCCN)NC(=O)[C@H](CCCCN)NC(=O)[C@H](CC(C)C)NC(=O)[C@H](Cc1cnc[nH]1)NC(=O)[C@H](CCCCN)NC(=O)[C@H](CC(C)C)NC(=O)[C@@H](N)Cc1ccccc1)C(N)=O [FLKHLKKLL]
MIC [9]: 7.02 µM (≈ 7.99 µg/mL)
MIC [1]: 56.2 µM (≈ 63.9 µg/mL)
MIC [2]: 112 µM (≈ 128 µg/mL)
MIC [10]: 112 µM (≈ 128 µg/mL)

Compound: CC[C@H](C)[C@H](NC(=O)[C@H](CCCCN)NC(=O)[C@@H](NC(=O)[C@@H](NC(=O)[C@H](CCCCN)NC(=O)[C@@H](NC(=O)[C@@H](NC(=O)CNC(=O)[C@H](C)NC(=O)[C@@H](NC(=O)[C@@H](NC(=O)CN)[C@@H](C)CC)[C@@H](C)CC)[C@@H](C)CC)[C@@H](C)CC)[C@@H](C)CC)[C@@H](C)CC)C(N)=O [GIIAGIIKIIKI]
MIC [1]: > 128 µM
MIC [11]: ≥ 128 µM

Compound: CC[C@H](C)[C@H](NC(=O)CNC(=O)[C@H](CCCN=C(N)N)NC(=O)[C@H](CCCCN)NC(=O)[C@@H](NC(=O)CNC(=O)[C@H](CCCN=C(N)N)NC(=O)[C@H](CCCCN)NC(=O)[C@@H](NC(=O)CN)[C@@H](C)CC)[C@@H](C)CC)C(=O)N[C@@H](CCCCN)C(=O)N[C@@H](CCCN=C(N)N)C(N)=O [GIKRGIKRGIKR]
MIC [1]: > 128 µM
MIC [11]: ≥ 128 µM

Compound: CC[C@H](C)[C@H](NC(=O)CN)C(=O)N[C@@H](CCCN=C(N)N)C(=O)N[C@@H](CCCN=C(N)N)C(=O)NCC(=O)N[C@H](C(=O)N[C@H](C(=O)N[C@@H](CCCCN)C(=O)N[C@H](C(=O)N[C@H](C(=O)N[C@@H](CCCCN)C(=O)N[C@@H](CCCN=C(N)N)C(N)=O)[C@@H](C)CC)[C@@H](C)CC)[C@@H](C)CC)[C@@H](C)CC [GIRRGIIKIIKR]
MIC [1]: 128 µM (≈ 182 µg/mL)
MIC [11]: ≥ 32 µM

Continued, values first:

MIC [12]: > 512 µM
MIC [13]: 64 µM (≈ 71.1 µg/mL)
MIC [9]: 64 µM (≈ 71.1 µg/mL)
MIC [1]: 256 µM (≈ 285 µg/mL)
MIC [2]: 256 µM (≈ 285 µg/mL)
MIC [11]: ≥ 32 µM
MIC [10]: > 512 µM
MIC [5]: 256 µM (≈ 285 µg/mL)
Compound: CC(C)C[C@H](NC(=O)CN)C(=O)N[C@@H](CC(C)C)C(=O)N[C@@H](CCCCN)C(=O)N[C@@H](CCCN=C(N)N)C(=O)N[C@@H](CC(C)C)C(=O)N[C@@H](CCCCN)C(=O)N[C@H](C(=O)N[C@@H](CC(C)C)C(=O)N[C@@H](C)C(N)=O)[C@@H](C)O [GLLKRLKTLA]

MIC [7]: 4 µM (≈ 7.75 µg/mL)
MIC [14]: 2 µM (≈ 3.87 µg/mL)
MIC [8]: 4 µM (≈ 7.75 µg/mL)
MIC [15]: 2 µM (≈ 3.87 µg/mL)
Compound: CC(C)[C@H](NC(=O)CNC(=O)[C@H](CCCN=C(N)N)NC(=O)[C@@H](NC(=O)[C@H](Cc1c[nH]c2ccccc12)NC(=O)[C@@H](NC(=O)[C@H](CCCN=C(N)N)NC(=O)CNC(=O)[C@H](Cc1c[nH]c2ccccc12)NC(=O)[C@H](CCCN=C(N)N)NC(=O)[C@@H](NC(=O)[C@@H](NC(=O)[C@@H](NC(=O)CN)C(C)C)C(C)C)C(C)C)C(C)C)C(C)C)C(=O)N[C@@H](CCCN=C(N)N)C(=O)N[C@@H](CCCN=C(N)N)C(N)=O [GVVVRWGRVWVRGVRR]

MIC [12]: 16 µM (≈ 24.3 µg/mL)
MIC [13]: 4 µM (≈ 6.08 µg/mL)
MIC [9]: 8 µM (≈ 12.2 µg/mL)
MIC [1]: 16 µM (≈ 24.3 µg/mL)
MIC [2]: 8 µM (≈ 12.2 µg/mL)
MIC [11]: 4 µM (≈ 6.08 µg/mL)
MIC [10]: 16 µM (≈ 24.3 µg/mL)
MIC [5]: 16 µM (≈ 24.3 µg/mL)
Compound: C[C@@H](O)[C@H](NC(=O)[C@H](CCCCN)NC(=O)[C@H](Cc1c[nH]c2ccccc12)NC(=O)[C@H](CCCN=C(N)N)NC(=O)[C@H](CCCCN)NC(=O)[C@H](Cc1c[nH]c2ccccc12)NC(=O)[C@H](Cc1c[nH]c2ccccc12)NC(=O)CN)C(=O)N[C@@H](Cc1c[nH]c2ccccc12)C(=O)N[C@@H](Cc1c[nH]c2ccccc12)C(N)=O [GWWKRWKTWW]

MIC [16]: 3 µM (≈ 4.82 µg/mL)
MIC [8]: 3 µM (≈ 4.82 µg/mL)
MIC [2]: 6.25 µM (≈ 10 µg/mL)
MIC [17]: 3 µM (≈ 4.82 µg/mL)
Compound: CC[C@H](C)[C@H](N)C(=O)N[C@@H](CC(N)=O)C(=O)N[C@@H](CC(C)C)C(=O)N[C@@H](CCCCN)C(=O)N[C@H](C(=O)N[C@@H](CC(C)C)C(=O)N[C@@H](C)C(=O)N[C@@H](CCCN=C(N)N)C(=O)N[C@@H](CC(C)C)C(=O)N[C@@H](C)C(=O)N[C@@H](CCCCN)C(=O)N[C@@H](CCCCN)C(=O)N[C@H](C(=O)N[C@@H](CC(C)C)C(N)=O)[C@@H](C)CC)[C@@H](C)CC [INLKILARLAKKIL]

MIC [18]: 2.03 µM (≈ 4 µg/mL)
MIC [9]: 0.507 µM (≈ 1 µg/mL)
MIC [1]: 1.01 µM (≈ 2 µg/mL)
MIC [2]: 0.507 µM (≈ 1 µg/mL)
MIC [10]: 1.01 µM (≈ 2 µg/mL)
MIC [4]: 1.01 µM (≈ 2 µg/mL)
MIC [19]: 2.03 µM (≈ 4 µg/mL)
Compound: CC(C)C[C@H](NC(=O)[C@H](Cc1ccc(O)cc1)NC(=O)[C@H](CCCCN)NC(=O)[C@H](Cc1ccccc1)NC(=O)[C@H](CC(C)C)NC(=O)[C@H](CCCN=C(N)N)NC(=O)[C@H](CCCCN)NC(=O)[C@H](Cc1ccccc1)NC(=O)[C@H](CC(C)C)NC(=O)[C@H](CCCN=C(N)N)NC(=O)[C@@H](N)CCCCN)C(=O)N[C@@H](CCCN=C(N)N)C(=O)N[C@@H](CCCN=C(N)N)C(=O)N[C@@H](Cc1ccccc1)C(=O)O [KRLFKRLFKYLRRF]

MIC [12]: > 64 µM
MIC [1]: > 64 µM
MIC [10]: > 64 µM
MIC [20]: > 64 µM
Compound: CC[C@H](C)[C@H](NC(=O)[C@H](Cc1cnc[nH]1)NC(=O)[C@H](CCCN=C(N)N)NC(=O)[C@H](CC(C)C)NC(=O)[C@H](CC(N)=O)NC(=O)[C@@H](N)CC(N)=O)C(=O)N[C@H](C(=O)N[C@@H](C)C(=O)N[C@@H](Cc1c[nH]c2ccccc12)C(=O)N[C@H]1CSSC[C@@H](C(=O)N[C@@H](C)C(=O)N[C@@H](CCCN=C(N)N)C(=O)N[C@@H](Cc2ccccc2)C(=O)N[C@@H](CCCCN)C(=O)N2CCC[C@H]2C(=O)N[C@@H](CCC(N)=O)C(=O)O)NC(=O)[C@H](C(C)C)NC(=O)[C@H](C)NC(=O)[C@H](CC(C)C)NC(=O)[C@H](CO)NC(=O)[C@H](Cc2ccc(O)cc2)NC(=O)[C@H](CC(N)=O)NC(=O)[C@H](CCCN=C(N)N)NC(=O)[C@H](CC(N)=O)NC(=O)[C@H](CCCCN)NC1=O)C(C)C [NNLRHIVAWCKNRNYSLAVCARFKPQ]

MIC [21]: ≥ 84.8 µM
Compound: CC[C@H](C)[C@H](NC(=O)[C@@H](NC(=O)[C@@H](NC(=O)[C@@H]1CCCN1C(=O)[C@H](Cc1c[nH]c2ccccc12)NC(=O)[C@H](Cc1ccccc1)NC(=O)[C@H](CCCN=C(N)N)NC(=O)[C@H](CCCCN)NC(=O)[C@@H](NC(=O)[C@@H](N)CCCN=C(N)N)[C@@H](C)CC)C(C)C)C(C)C)C(=O)N[C@@H](CCCN=C(N)N)C(=O)N[C@H](C(=O)N[C@H](C(=O)N[C@H](C(=O)O)C(C)C)C(C)C)[C@@H](C)O [RIKRFWPVVIRTVV]

MIC [22]: ≥ 64 µM
MIC [1]: 32 µM (≈ 71.9 µg/mL)
Compound: CC[C@H](C)[C@H](NC(=O)[C@H](CCC(N)=O)NC(=O)[C@H](CCSC)NC(=O)[C@H](CCC(N)=O)NC(=O)[C@@H](NC(=O)[C@H](CCCCN)NC(=O)[C@H](Cc1ccccc1)NC(=O)[C@H](Cc1c[nH]c2ccccc12)NC(=O)[C@@H](N)CCCN=C(N)N)[C@@H](C)CC)C(=O)N[C@@H](CCCN=C(N)N)C(=O)N[C@@H](CCCN=C(N)N)C(=O)N[C@@H](Cc1c[nH]c2ccccc12)C(=O)N[C@@H](CCCCN)C(=O)N[C@@H](CC(N)=O)C(=O)N[C@@H](CCCCN)C(=O)N[C@@H](CCCCN)C(N)=O [RWFKIQMQIRRWKNKK]

Source: DBAASP
